Measured values published in US20220354834A1, “METHODS AND MATERIALS FOR TREATING NEUROTOXICITY” (Cavion, Inc., priority 2019, published 2022).

What was measured:
β-tubulin = β-tubulin polymerization assay in sciatic nerve; format: in vivo, Wistar rat; conditions: week 8
Protocol: (§1) Wistar female rats (n=52) (Envigo, Correzzano, Italy) at 10-11 weeks of age were utilized. The study was divided into 2 phases of 4 weeks each. […] Body weight was measured periodically during phase 1 from baseline (day 1) to day 28. At baseline and conclusion of phase 1 (day 28), nerve conduction velocity (NCV) was performed on caudal and sciatic nerves and Dynamic Aesthesiometer Test (DAT) measured mechanical threshold (MT) of the hind paw. […] Body weight was measured periodically from baseline (day 28) to day 56 (termination). NCV and MT were measured in all 4 groups at baseline and on day 35 and 56. […] At termination, sciatic nerves were obtained for β-tubulin polymerization and skin samples were procured for intraepidermal nerve fiber (IENF) density and histopathology.
At day 56, animals were euthanized by CO2 inhalation and tissue samples were procured from 4 rats per group. Right sciatic nerve was frozen in liquid nitrogen for β-tubulin polymerization assay and plantar glabrous skin samples were collected for IENF density.
Protein extracts from sciatic nerves were processed similar to the proteasome assay except for lysis buffer that contained freshly added protease and […] (10 mM sodium orthovanadate, 4 mM phenylmethylsulfonyl fluoride, 1% aprotinin and 20 mM sodium pyrophosphate). Protein extracts were centrifuged (14000 rpm for 10 minutes at 4° C.) to separate soluble (S) free tubulin fractions from polymerized (P) fractions. Supernatants were collected and pellets of polymerized tubulin were resuspended by sonication for 20 seconds in a volume of lysis buffer supplemented with 0.5% sodium deoxycholate (equivalent to S fraction). Protein aliquots (10 μg) were placed onto 13% SDS-PAGE and, after electrophoresis, were transferred to nitrocellulose filters. Immunoblotting analysis was performed using mouse anti-β-tubulin antibody. After incubation with primary antibody, membrane was washed and incubated with horseradish peroxidase conjugated to […] (Perkin Elmer Italia SPA, Monza, Italy). The ECL chemiluminescence system (Amersham GE Healthcare Europe GmbH, Milano, Italy) was used for detection. Band intensity was quantified with Gel Logic 100 Image System (Eastman Kodak, Rochester, N.Y., USA). Final mean values were obtained from triplicate experiments and data were expressed as percentage of P/P+S in treated rats compared to controls.

proteasome = assay: Proteasome inhibition assay in PBMCs of treated rats; format: in vivo, rat
Protocol: as §1

U266B1 cells = assay: In vitro BTZ cytotoxicity study (SRB assay); format: cell-based; conditions: Homo sapiens, 72 hours, read-out: IC50 of % cell survival
Protocol: (§2) MM.1S and U266B1 cells were obtained from the American Type Culture Collection (San Giovanni, Italy). All cell lines were maintained in floating culture with RPMI medium that contained 2 mM L-glutamine supplemented with 10% FBS, penicillin and streptomycin. MM.1S cell medium was supplemented with 1.5 g/L sodium bicarbonate, 10 mM HEPES and 1 mM sodium pyruvate. Cells were grown in 75 cm^2 culture flasks for floating cells (Corning Inc. Corning, N.Y., USA) at 37° C. in 5% CO2 and 95% air.
(§3) Cells were plated in 96-well plates (Eppendorf, Milano, Italy) at 10000 cells/well. […] After incubation, BTZ was diluted in culture medium at dose range for testing. Cells were fixed with trichloroacetic acid for 1 hour. Cells were stained with a solution of SRB in 1% acetic acid for 15 minutes. Unbound dye was removed by 5 washes with 1% acetic acid. Bound dye was dissolved with a solution of Tris (hydroxymethyl) aminomethane base and absorbance of content was measured at […]. Growth inhibition was expressed as percentage of DMSO control absorbance of cells and corrected for absorbance before addition of drug.

MM.1S cells = assay: In vitro BTZ cytotoxicity study (SRB assay); format: cell-based; conditions: Homo sapiens, MM1.S, 72 hours, read-out: IC50 of % cell survival
Protocol: as §2, §3

RPMI 8226 cells = assay: In vitro BTZ cytotoxicity study (SRB assay); format: cell-based; conditions: Homo sapiens, 72 hours, read-out: IC50 of % cell survival
[1] = system: human MMCs (RPMI 8226, MM.1S, U266B1); assay: In vitro cytotoxicity and combination (BTZ and CX-8998) interference study, SRB assay in the 3 MCLs; format: cell-based; conditions: 72 hours
Protocol: as §3
Differences in percent cell survival between each drug or drug combination and control were analyzed by non-linear least squares with statistical significance at p<0.05.

Structure (SMILES)	TUBULIN POLYMERIZATION, Difference in rank sum (Dunn's Multiple Comparison Test) (β-tubulin; BTZ vs BTZ+ CX-8998 3 mg/kg, P > 0.05 ns)	TUBULIN POLYMERIZATION, Difference in rank sum (Dunn's Multiple Comparison Test) (β-tubulin; BTZ vs BTZ+ CX-8998 10 mg/kg, P > 0.05 ns)	TUBULIN POLYMERIZATION, Difference in rank sum (Dunn's Multiple Comparison Test) (β-tubulin; BTZ vs BTZ+ CX-8998 30 mg/kg, P > 0.05 ns)	TUBULIN POLYMERIZATION, Difference in rank sum (Dunn's Multiple Comparison Test) (β-tubulin; BTZ+ CX-8998 3 mg/kg vs BTZ+ CX-8998 10 mg/kg, P > 0.05 ns)	TUBULIN POLYMERIZATION, Difference in rank sum (Dunn's Multiple Comparison Test) (β-tubulin; BTZ+ CX-8998 3 mg/kg vs BTZ+ CX-8998 30 mg/kg, P < 0.05 *)	TUBULIN POLYMERIZATION, Difference in rank sum (Dunn's Multiple Comparison Test) (β-tubulin; BTZ+ CX-8998 10 mg/kg vs BTZ+ CX-8998 30 mg/kg, P < 0.05 *)	TUBULIN POLYMERIZATION, Difference in rank sum (Dunn's Multiple Comparison Test) (β-tubulin; CTRL vs BTZ+ CX-8998 3 mg/kg, P < 0.05 *)	TUBULIN POLYMERIZATION, Difference in rank sum (Dunn's Multiple Comparison Test) (β-tubulin; CTRL vs BTZ+ CX-8998 10 mg/kg, P < 0.05 *)	TUBULIN POLYMERIZATION, Difference in rank sum (Dunn's Multiple Comparison Test) (β-tubulin; CTRL vs BTZ+ CX-8998 30 mg/kg, P > 0.05 ns)	% proteasome activity in circulating PBMCs (proteasome; BTZ, week 4 vs baseline, p<0.05)	proteasome activity (proteasome; weeks 5 and 8, BTZ alone)	IC50 (U266B1 cells) [nM]	IC50 (MM.1S cells) [nM]	IC50 (RPMI 8226 cells) [nM]	inhibition of cell growth (cytotoxicity) ([1]; BTZ 0.05-250 nM, 3 MCLs)	percent cell survival ([1]; BTZ alone at IC50 (6, 4, 2.5 nM) vs DMSO control, p<0.001)	TUBULIN POLYMERIZATION, Difference in rank sum (Dunn's Multiple Comparison Test) (β-tubulin; CTRL vs BTZ, P < 0.05 *)	β-tubulin polymerization (%) (β-tubulin; BTZ alone vs control, p<0.05)
CC(C)c1ccc(CC(=O)N[C@H](C)c2ccc(OCC(F)(F)F)cn2)cc1 [CX-8998, (R)-2-(4-Isopropylphenyl)-N-(1-(5-(2,2,2-Trifluoroethoxy)pyridin-2-yl)ethyl)acetamide]	−4.000	−4.000	15.00	0.000	19.00	19.00	−15.64	−15.46	0.2576	–	–	–	–	–	–	–	–	–
CC(C)C[C@H](NC(=O)[C@H](Cc1ccccc1)NC(=O)c1cnccn1)B(O)O [BTZ, bortezomib, reference compound]	–	–	–	–	–	–	–	–	–	significant inhibition	similarly inhibited	2.5 ± 0.6	6 ± 0.5	4 ± 1.7	concentration-dependent inhibition of cell growth	significantly reduced	−14.74	significantly increased
